# How the values were obtained:
# HeLa cells = assay: TAMRA-TCO comparative washout assay; type: cell-based; conditions: 5 μM, 30 min incubation
# Excerpt: While TCO-derivatives offer rapid labeling kinetics, a consideration for labeling by fluorophore-tagged TCOs has been the background fluorescence due to non-covalent cellular binding that can be ameliorated only by extended washout times. More hydrophilic oxo- and dioxo-trans-cyclooctenes with backbone oxygens offer improvements, but are difficult to synthesize and, for dioxo-TCO, display reduced Diels-Alder kinetics. As shown in FIGS. 5A-5C, the fluorescent conjugates TAM RA-TCO, TAMRA-oxo-TCO and TAMRA-a-TCO were prepared and compared their cellular washout times to unconjugated TAMRA. Thus, HeLa cells were incubated for 30 min with TAMRA-dyes, and cells were initially washed three times with DPBS, and then cell media was exchanged after 10, 40 and 120 minutes. After each wash, cells were imaged live by fluorescence microscopy with illumination at 531 nm and fixed-intensity across all samples. Widefield images of the cells after 3 washes are shown in FIG. 5B; images after the earlier and later washings are shown in FIG. 8. Background fluorescence was quantified by dividing total fluorescence by the number of cells in each image (FIG. 5C).
# HeLa cells were seeded at 5×10^3 cells per well in a poly-L-lysine (0.1 mg/mL) coated 48-well plate and allowed to grow for 48 hours in Dulbecco's modified eagle medium (DMEM, Life Technologies) supplemented with 5% FBS (Life Technologies), 1 mM L-glutamine, and 1% penicillin/streptomycin (Life Technologies). Cells were then incubated with media containing 5 μM of TAMRA-TCO, TAMRA-oxo-TCO, or TAMRA-a-TCO 12 (1 mM stock solutions in DMSO, diluted twice into media) for 30 mins at 37° C. All wells were washed three times with DPBS before adding fresh media. Cells were imaged after 2 DPBS washes and again after the 3rd DPBS wash, then incubated for additional time intervals: 10 minutes, 40 minutes, and 2 hour. At each time point, the media was removed from the designated wells and replaced with fresh media before imaging. Images were taken with an EVOS M7000 and all images were taken with the same laser power and gain. Fluorescence intensity was calculated for each sample in 3 replicates using ImageJ and the fluorescence data was normalized with the cell count of each image.
# [1] = Stopped-flow kinetics of the Diels-Alder reaction with tetrazine 20; type: physicochemical; conditions: for Kobs: 95:5 PBS/MeOH, in s-1 (unit assumed)
# Experimental: The kinetics for the reaction of a-TCO derivative 14 toward a 3,6-dipyridyl-s-tetrazinyl succinamic acid derivative 20 were measured by stopped flow kinetics at 25° C. in 95:5 PBS:MeOH (FIG. 4A).
# Stopped-flow kinetics measurements were performed on a SX18MV-R stopped-flow spectrophotometer (Applied Photophysics Ltd.) with temperature control (25° C.).
# The reaction between 5-ax-hydroxy-5-eq-(2-hydroxyethyl)-trans-cyclooctene 14 and 3,6-dipyridyl-s-tetrazine-mono-succinamic acid 20 was monitored by a SX18MV-R stopped-flow spectrophotometer (Applied Photophysics Ltd.) at 325 nm by measuring the exponential decay of tetrazine under pseudo-first order conditions. Solutions of 14 (0.98, 1.46, 1.95, and 2.63 mM in 9:1 PBS/MeOH) and tetrazine (0.1 mM in PBS) were mixed in the stopped-flow spectrophotometer in equal volumes resulting in final concentrations of 0.49 mM, 0.73 mM, 0.97 mM, and 1.31 mM of 14 and 0.05 mM of tetrazine in 95:5 PBS/MeOH. Three independent samples were prepared for each TCO concentration and measurements were taken in duplicate every 0.1 ms for 0.1 sat 25° C. The observed rates kobs for each run were determined by nonlinear regression analysis of the data points using Prism software (Version 8.00, GraphPad Software Inc). The average kobs values were plotted against the concentrations of 14 to obtain the bimolecular rate constant k2 from the slope of the plot.
# The observed rates (kobs) of 5-ax-hydroxy-5-eq-(2-hydroxyethyl)-trans-cyclooctene 14 (10-30 equivalents) and 3,6-dipyridyl-s-tetrazine-mono-succinamic acid 20 were measured using stopped-flow kinetics. The final concentrations of 14 after injection were (A) 0.49 mM, (B) 0.73 mM, (C) 0.97 mM, and (D) 1.31 mM and the concentration of tetrazine was 0.05 mM in 95:5 PBS/MeOH at 25° C. Duplicate measurements were obtained for three independent samples for each concentration of 14.
# The reaction between 5-ax-hydroxy-trans-cyclooctene 4a and 3,6-dipyridyl-s-tetrazine-mono-succinamic acid 20 was monitored by a SX18MV-R stopped-flow spectrophotometer (Applied Photophysics Ltd.) at 325 nm by measuring the exponential decay of tetrazine under pseudo-first order conditions. Solutions of 4a (100, 200, 300, and 400 μM in 9:1 PBS/MeOH) and tetrazine (20 μM in PBS) were mixed in the stopped-flow […] 95:5 PBS/MeOH. Three independent samples were prepared for each TCO concentration and measurements were taken in duplicate every 0.1 ms for 0.2 s at 25° C. The observed rates kobs for each run were determined by nonlinear regression analysis of the data points using Prism software (Version 8.00, GraphPad Software Inc). The average kobs values were plotted against the concentrations of 4a to obtain the bimolecular rate constant k2 from the slope of the plot.
# The observed rates (kobs) of 5-ax-hydroxy-trans-cyclooctene 4a (5-20 equivalents) and 3,6-dipyridyl-s-tetrazine-mono-succinamic acid 20 were measured using stopped-flow kinetics. […]
# [2] = Stability in methanol-d4 (35 mM) by quantitative 1H NMR; type: physicochemical; conditions: 35 mM in methanol-d4, after 7 days
# Experimental: (§1) A solution of 14 (4.5 mg, 26 μmol) in methanol-d4 (750 μL) was monitored by quantitative ^1H NMR on a 600 MHz instrument to observe the decomposition of the trans-isomer over time. Methyl tert-butyl ether (3.1 μL, 26 μmol) was used as an internal standard. […] The results were plotted using Prism software (Version 8.00, GraphPad Software Inc). A waterfall plot of the ^1H NMR spectra is provided.
# as §1, with “4a (3.3” for “14 (4.5”
# [3] = Stability in phosphate buffered D2O, pD=7.4 (33 mM) by quantitative 1H NMR; type: physicochemical
# Experimental: (§2) Phosphate buffered D2O (pD=7.4) was prepared by combining anhydrous sodium dihydrogen phosphate (NaH2PO4, 77.1 mg) and anhydrous disodium hydrogen phosphate (Na2HPO4, 204.4 mg) with 20 mL of D2O to make a 0.1 M solution. The pD was measured on a Fisher Scientific AB15 Plus pH meter and pH values were converted to pD by adding 0.4 units. The pD was adjusted to 7.4 with DCI (35 wt. % in D2O) and NaOD (40 wt. % in D2O) as necessary.
# (§3) A solution of 14 (4.3 mg, 25 μmol) in phosphate buffered D2O (750 μL, pD=7.4) was monitored by quantitative ^1H NMR on a 600 MHz instrument to observe the decomposition of the trans-isomer over time. Methyl tert-butyl ether (3.0 μL, 26 μmol) was used as an internal standard. After 1 day, 90% of 14 remained and after 5 days, 39% remained (FIG. 6B). The results were plotted using Prism software (Version 8.00, GraphPad Software Inc). A waterfall plot of the ^1H NMR spectra is provided.
# as §3, with “4a (3.2” for “14 (4.3”, “85%” for “90%”, “4a” for “14”, “35%” for “39%”
# [4] = Stability with mercaptoethanol (25 mM) in phosphate buffered D2O, pD=7.4; type: physicochemical; conditions: 25 mM mercaptoethanol
# Experimental: as §2
# TCO 14 (3.1 mg, 18 μmol) in a solution of mercaptoethanol in phosphate buffered D2O (720 μL, 18 μmol, 25 mM, pD=7.4) was monitored by quantitative 1H NMR on a 600 MHz instrument to observe the decomposition of the trans-isomer over time. Methyl tert-butyl ether (2.1 μL, 18 μmol) was used as an internal standard. After 4 hours, 93% of 14 remained and 49% of 14 remained after 20 hours. (FIG. 6C). The results were plotted using Prism software (Version 8.00, GraphPad Software Inc). A waterfall plot of the ^1H NMR spectra is provided.
# TCO 4a (2.3 mg, 18 μmol) in a solution of mercaptoethanol in phosphate buffered D2O (720 μL, 18 μmol, 25 mM, pD=7.4) was monitored by quantitative 1H NMR on a 600 MHz instrument to observe the decomposition of the trans-isomer over time. Methyl tert-butyl ether (2.1 μL, 18 μmol) was used as an internal standard. After 4 hours, 89% of 4a and 49% of 4a remained after 20 hours. (FIG. 6C). The results were plotted using Prism software (Version 8.00, GraphPad Software Inc). A waterfall plot of the ^1H NMR spectra is provided.
decomposition of the trans-isomer [2],"TCO remaining ([3]; phosphate buffered D2O pD 7.4, 1 day (24 h), room temperature) [%]","TCO remaining ([3]; phosphate buffered D2O pD 7.4, 5 days) [%]","TCO remaining ([4]; phosphate buffered D2O pD 7.4, 4 hours) [%]","TCO remaining ([4]; phosphate buffered D2O pD 7.4, 20 hours) [%]",Compound,background fluorescence after 3 washings (HeLa cells; 3 washes with DPBS),background fluorescence / washout after 2 hours (HeLa cells; media exchanges up to 2 hours),"Kobs ([1]; A (0.49 mM) of 14, 0.05 mM tetrazine, 25° C.)","Kobs ([1]; B (0.73 mM) of 14, 0.05 mM tetrazine, 25° C.)","Kobs ([1]; C (0.97 mM) of 14, 0.05 mM tetrazine, 25° C.)","Kobs ([1]; D (1.31 mM) of 14, 0.05 mM tetrazine, 25° C.)",reactivity relative to oxo-TCO ([1]; comparison of k2 with oxo-TCO),reactivity toward 20 relative to 4a ([1]; ratio of k2 versus axial isomer 4a),reactivity toward 20 relative to 4b ([1]; ratio of k2 versus equatorial isomer 4b) [times],"second-order rate constant k2 ([1]; toward tetrazine 20, stopped flow, 25° C., 95:5 PBS:MeOH)"
,,,,,"CN(C)c1ccc2c(-c3ccc(C(=O)NCCCCCNC(=O)OC[C@@H]4CC/C=C/CCO4)cc3C(=O)[O-])c3ccc(=[N+](C)C)cc-3oc2c1 (stereo in doubt) [TAMRA-oxo-TCO, (S,E)-2-(6-(dimethylamino)-3-(dimethyliminio)-3H-xanthen-9-yl)-5-((5-((((3,4,7,8-tetrahydro-2H-oxocin-2-yl)methoxy)carbonyl)amino)pentyl)carbamoyl)benzoate, reference compound]",improved,residual fluorescence,,,,,,,,
no observable decomposition,90,39,93,49,"OCC[C@]1(O)CC/C=C/CCC1 [Compound 14, 5-ax-Hydroxy-5-eq-(2-hydroxyethyl)-trans-cyclooctene]",,,76.13,121.4,162.4,200.2,more reactive than oxo-TCO,more than twice as reactive,~7,"150,000±8000 M^−1s^−1"
